Experimental data taken from PubChem BioAssay AID1083 (University of Pittsburgh Molecular Library Screening Center, 2008).
Where “and” joins values, the source holds several entries; their conditions need not be identical. Identical values can stand only once. Calls of active or inactive are those of the source. No rule for the calls is given here.

Each molecule was assayed against Serine/threonine-protein kinase PLK1 (Homo sapiens) (UniProt P53350) (assay: PLK1 polo-box domain peptide-binding inhibitors, SAR follow-up, biochemical, fluorescence polarization, purchased analogs, concentration response (AID 1083)). Settings: Plk1 PBD peptide binding.
Sequence of Serine/threonine-protein kinase PLK1 (Homo sapiens) (P53350 whole entry, looked up, the tested form may be a part): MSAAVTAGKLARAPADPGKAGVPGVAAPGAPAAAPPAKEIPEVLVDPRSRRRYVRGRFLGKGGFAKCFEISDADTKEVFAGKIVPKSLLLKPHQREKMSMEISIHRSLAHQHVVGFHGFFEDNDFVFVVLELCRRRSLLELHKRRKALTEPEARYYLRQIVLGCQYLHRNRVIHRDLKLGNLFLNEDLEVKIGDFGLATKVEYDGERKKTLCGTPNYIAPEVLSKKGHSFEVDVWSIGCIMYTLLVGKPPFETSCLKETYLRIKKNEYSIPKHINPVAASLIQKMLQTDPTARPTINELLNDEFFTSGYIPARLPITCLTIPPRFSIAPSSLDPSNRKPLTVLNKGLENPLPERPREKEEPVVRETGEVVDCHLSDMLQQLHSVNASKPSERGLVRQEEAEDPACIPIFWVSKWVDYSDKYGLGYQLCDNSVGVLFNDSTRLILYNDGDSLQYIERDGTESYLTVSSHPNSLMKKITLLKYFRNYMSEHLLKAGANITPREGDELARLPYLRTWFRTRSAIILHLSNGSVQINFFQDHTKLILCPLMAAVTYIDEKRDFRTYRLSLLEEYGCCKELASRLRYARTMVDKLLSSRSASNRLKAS
`COC(=O)c1ccc(N(/N=C2\Sc3ccccc3C2=O)C(C)=O)cc1` showed an IC50 of 13.9 µM.
For `CC(=O)N(CN1C(=O)c2ccccc2C1=O)c1ccccc1C`, the IC50 was > 50 µM (inactive).
For `CCOC(=O)c1ccc(NC(=O)c2ccc(Cl)c(Cl)c2)cc1`, the IC50 was > 50 µM (inactive).
`CCOC(=O)c1ccc(NC(=O)c2c(C)cc(=O)oc2C)cc1` was tested, and the IC50 was > 50 µM (inactive).
Molecule `CCn1nc(-c2ccccc2Cl)nc2c(=O)n(C)c(=O)nc1-2` has an IC50 of 1.55 µM.
With `CCCOC(=O)c1ccc(NC(=O)c2ccc(C)c(I)c2)cc1` the IC50 was > 50 µM (inactive).
`CC(=O)N(/N=C1\Sc2ccccc2C1=O)c1ccccc1C` gave an IC50 of 37.4 µM.
With `COc1cc(Br)cc(C=C2C(=O)NC(=O)NC2=O)c1O` the IC50 was > 50 µM (inactive).
`CC(=O)N(/N=C1\Sc2ccccc2C1=O)c1ccccc1[N+](=O)[O-]` was tested, and the IC50 was 18.7 µM.
Work on `Cn1nc(-c2ccccc2)nc2c(=O)n(C)c(=O)nc1-2` yielded an IC50 of 1.45 µM.
In the case of `COc1ccc(N(CN2C(=O)c3ccccc3C2=O)C(=O)C(F)(F)F)cc1`, the IC50 is reported as > 50 µM (inactive).
For `CC(OC(=O)c1ccc(NC(=O)c2ccc(Br)cc2)cc1)C(=O)c1ccccc1` (centres undefined), the IC50 was > 50 µM (inactive).
For `CC(=O)N(CN1C(=O)c2ccccc2C1=O)c1ccc(Br)cc1`, the IC50 was > 50 µM (inactive).
In the case of `COc1ccc(N(CN2C(=O)c3cc(Cl)c(Cl)cc3C2=O)C(C)=O)cc1`, the IC50 is reported as > 50 µM (inactive).
`CC(=O)N(CN1C(=O)c2ccccc2C1=O)c1ccc(Cl)c(Cl)c1` was tested, and the IC50 was > 50 µM (inactive).
In the case of `CC(=O)N(/C=C1\Sc2ccccc2C1=O)c1cc(C(F)(F)F)ccc1Cl`, the IC50 is reported as > 50 µM (inactive).
With `CCOC(=O)c1ccc(NC(=O)C2Cc3ccccc3C(=O)O2)cc1` (centres undefined) the IC50 was > 50 µM (inactive).
With `CC(=O)N(/N=C1\Sc2ccccc2C1=O)c1cc(C)ccc1C` the IC50 was > 50 µM (inactive).
`CCOC(=O)c1ccc(N=Cc2c(O)n(C)c(=O)n(C)c2=O)cc1` was tested, and the IC50 was > 50 µM (inactive).
With `Cn1c(=O)c2nc(-c3ccccc3)c(-c3ccccc3)nc2n(C)c1=O` the IC50 was > 50 µM (inactive).
`O=C(COC(=O)c1ccc(NC(=O)c2ccc(Cl)cc2)cc1)c1ccccc1` was tested, and the IC50 was > 50 µM (inactive).
For `O=C(COC(=O)c1ccc(NC(=O)c2ccc([N+](=O)[O-])cc2)cc1)c1ccccc1`, the IC50 was > 50 µM (inactive).
With `CC(=O)N(/N=C1\Sc2ccccc2C1=O)c1cccc(Br)c1` the IC50 was 20.9 µM.
`CCOC(=O)c1ccc(NC(=O)C2C3CCC(C3)C2C(=O)O)cc1` (centres undefined) was tested, and the IC50 was > 50 µM (inactive).
For `O=C1NC(=O)C(=Cc2cc(Cl)c(OCc3ccc(C(=O)O)cc3)c(Cl)c2)C(=O)N1`, the IC50 was > 50 µM (inactive).
For `CC(=O)N(/C=C1\Sc2ccccc2C1=O)c1ccc(C)c(C)c1`, the IC50 was > 50 µM (inactive).
`CC(=O)N(CN1C(=O)c2cccc([N+](=O)[O-])c2C1=O)c1ccc2c(c1)oc1ccccc12` was tested, and the IC50 was > 50 µM (inactive).
With `CCOC(=O)c1ccc(N=Cc2c(O)n(C3CCCCC3)c(=O)n(C3CCCCC3)c2=O)cc1` the IC50 was > 50 µM (inactive).
Work on `CCn1nc(-c2ccc(C(=O)OC)cc2)nc2c(=O)n(C)c(=O)nc1-2` yielded an IC50 of 0.488 µM.
With `O=c1[nH]c(=O)c2nc(-c3ccc(Cl)cc3)cnc2[nH]1` the IC50 was > 50 µM (inactive).
For `Cn1c(O)c(C(=O)c2ccccc2Cl)c(=O)n(C)c1=O`, the IC50 was > 50 µM (inactive).
With `CCCCCC(=O)N(CN1C(=O)c2ccccc2C1=O)c1ccc(OCc2ccccc2)cc1` the IC50 was > 50 µM (inactive).
In the case of `CCN(CC)CCOC(=O)c1ccc(N=Cc2c(O)n(-c3c(C)cc(C)cc3C)c(=O)[nH]c2=O)cc1`, the IC50 is reported as > 50 µM (inactive).
`COc1ccc(N(CN2C(=O)c3ccccc3C2=O)C(C)=O)cc1` was tested, and the IC50 was > 50 µM (inactive).
`O=C1NC(=O)C(=Cc2ccccc2OCCOc2ccccc2)C(=O)N1` was tested, and the IC50 was > 50 µM (inactive).
In the case of `CC(=O)N(CN1C(=O)c2ccccc2C1=O)c1ccc(I)cc1`, the IC50 is reported as > 50 µM (inactive).
For `Cn1c(=O)c2nc(-c3ccccc3)c(=O)n(C)c2n(C)c1=O`, the IC50 was > 50 µM (inactive).
With `CCN(CC)CCOC(=O)c1ccc(N=Cc2c(O)n(C)c(=O)[nH]c2=O)cc1` the IC50 was > 50 µM (inactive).
For `CCOC(=O)c1ccc(NC(=O)c2ccc(NC(=O)CC)cc2)cc1`, the IC50 was > 50 µM (inactive).
With `CC(=O)N(/N=C1\Sc2ccccc2C1=O)c1ccccc1Cl` the IC50 was > 50 µM (inactive).
With `CCOC(=O)c1ccc(N=Cc2c(O)n(CC)c(=O)[nH]c2=O)cc1` the IC50 was > 50 µM (inactive).
`CCn1nc(-c2ccccc2)nc2c(=O)n(C)c(=O)nc1-2` was tested, and the IC50 was 0.524 µM.
With `Cn1c(=O)[nH]c(=O)c2nc(-c3ccccc3)c(-c3ccccc3)nc21` the IC50 was > 50 µM (inactive).
`Cc1ccc(-c2nnc3[nH]c(=O)n(C)c(=O)c3n2)cc1` was tested, and the IC50 was > 50 µM (inactive).
In the case of `CCCC(=O)c1c(O)[nH]c(=O)[nH]c1=O`, the IC50 is reported as > 50 µM (inactive).
In the case of `Cn1nc(-c2ccc(C(F)(F)F)cc2)nc2c(=O)n(C)c(=O)nc1-2`, the IC50 is reported as 0.21 µM and 0.851 µM.
In the case of `CCOC(=O)c1ccc(NC(=O)C2COc3ccccc3O2)cc1` (centres undefined), the IC50 is reported as > 50 µM (inactive).
`Cc1cc(-n2c(C)cc(C=C3C(=O)NC(=O)NC3=O)c2C)ccc1I` showed an IC50 of 45.2 µM.
With `COC(=O)c1ccc(NC(=O)c2cc(-c3ccc(C)o3)nc3ccccc23)cc1` the IC50 was > 50 µM (inactive).
